Data as given in patent US20250251402A1, “METHODS OF DETECTING MOLECULAR AGGREGATES USING IMAGE CORRELATION SPECTROSCOPY (ICS)” (The General Hospital Corporation, priority 2022, published 2025).

How the values were obtained:
Format in all cases: cell-based
HepG2 cells = experiment: Autocorrelation (ICS DA) of 53BP1 in phenotypic screen images, HepG2
Procedure: (§1) Images from the original study (8) were accessed through the Image Data Resource (32) API on the Open Microscopy environment. Nuclei were segmented using StarDist (33) on the BFP channel image. Segmented nuclei were then analyzed by image correlation spectroscopy autocorrelation (34) in the TP53BP1 channel and the average degree of aggregation (DA) was calculated.
(§2) We accessed the original phenotypic screen (8) images through the IDR API on the Open Microscopy server. The screen contained three different cell lines that had endogenous TP53BP1 labeled GFP as a marker protein. We first identified all the images from these three cell lines (>60,000 images in total), then segmented the nuclei of each cell using the BFP channel image. Segmented nuclear regions were then transferred to the TP53BP1 image and image autocorrelation was performed on each nucleus. The degree of aggregation (DA, a measurement of fluorophore clustering) for each nucleus was then averaged to produce an overall image 53BP1 DA that corresponded to the compound and compound concentration. The dataset contained repeats of four different doses for each compound. The activity of each compound in each cell line was then determined by fitting a linear regression to the DA as a function of compound concentration. The slope and significance versus the null hypothesis (slope equal to zero) of DA vs. concentration was then determined.
(§3) 53BP1 DA is a measure of protein labeled fluorophore clustering within the nucleus. […] Increases in 53BP1 recruitment can occur either through induction of DNA damage or altered repair pathways, such as shifting the response from homologous recombination to non-homologous end joining.

WPMY-1 cells = experiment: Autocorrelation (ICS DA) of 53BP1 in phenotypic screen images, WPMY-1
Procedure: as §1, §2, §3

A549 cells = experiment: Autocorrelation (ICS DA) of 53BP1 in phenotypic screen images, A549
Procedure: as §1, §2, §3

53BP1 = experiment: Autocorrelation (ICS DA) of 53BP1 in phenotypic screen images, cell line not specified; conditions: at least one cell line of A549, WPMY-1, HepG2
Procedure: as §1, with “calculated. […] Active compounds were defined as having significant (p<0.05) non-zero linear regressions, either negative or positive. The activity score was determine by summing the direction of each active compound and dividing by the total number of compounds in the MoA.” for “calculated.”
as §2, with “determined. Active compounds were defined as those having a significant (p<0.05) slope of DA vs. concentration.” for “determined.”
53BP1 DA is a measure of protein labeled fluorophore clustering within the nucleus. […] Yet, given the highly characterized role of 53BP1 in the DNA damage response (9), recruitment to DNA damage response foci is likely the most prominent driver of measured activity.

HCC1937 cells = experiment: 53BP1-mApple condensate anisotropy (homo-FRET) and intensity in HCC1937 cells
Procedure: All fluorescence imaging was performed on an Olympus FV1000 multiphoton/confocal microscope. Anisotropy measurements were performed through custom modifications to the imaging system as previously described (30). Briefly, linear polarization of two photon excitation light at 910 nm (MaiTai femtosecond laser, Spectra Physics) was controlled by a glan-thompson prism and half wave plate. […] was collected in orthogonal orientations through two detectors, parallel and perpendicular to excitation polarization, through a polarizing beam splitter that replaced a dichroic mirror in the emission filter cube. The alignment and detector gain and noise were validated each imaging session through measurements of a standard slide. Images were taken with an Olympus 25× XLPlan N objective, NA 1.05, and 3× digital zoom. Confocal imaging was performed with an Olympus XLUMPlanFL N 20× objective, NA 1.00 with chromatic correction, and 3× digital zoom.
Cells were grown on 12 mm round, uncoated, sterilized glass coverslips in 24-well plates for 24 hours. Cells were treated with PARPi and 100 μM TMZ for 1 hour or 10 nM GMX1778 overnight followed by 100 μM TMZ for 1 hour. TMZ was added to stimulate new DNA damage induced condensates in the presence of PARPi or NAD″ depletion. Cells were then transferred to the microscope for anisotropy imaging. Images were analyzed in MATLAB. Nuclei were segmented through intensity thresholding and condensates were segmented through further intensity thresholding with a higher threshold. Values of segmented nuclei and condensates were determined through the regionprops function. Segmentation was corrected through area restrictions to ensure that regions of interest were isolated condensates. The thresholding parameters were consistent throughout experiments. The average intensity and anisotropy of each segmented nuclei or condensate was then calculated. Data were plotted in Prism and analysis performed in Prism or Excel.

HT1080 cells = experiment: γH2AX immunofluorescence ICS DA and nuclear intensity in HT1080 cells; conditions: HT1080, 10 nM GMX1778 for 24 hours vs control
Procedure: Cells were plated in 8-well […] slides (Thermo or Ibidi) to achieve 50% confluence overnight. Cells were then treated and fixed with 4% paraformaldehyde in PBS at room temperature for 10 minutes. Antibody staining was performed according to the manufacturers protocol. Following fluorescent secondary antibody labeling, prolong gold with DAPI (Cell Signaling Technologies) was added and samples were stored for up to 1 week prior to imaging.
ICS analysis was performed in MATLAB as previously described (41). Briefly, nuclei were segmented from the DAPI channel with the MATLAB function, imbinarize, converting the greyscale image to a binary dependent on an automatically defined threshold. The MATLAB function, regionprops, was used to identify single nuclei as objects. Each nucleus was used as a mask to perform ICS analysis on the antibody-stained channel, within size limitations for a nucleus (objects >400 and <3000 pixels). To ensure the analysis of antibody stained nuclei, nuclei under an average intensity of 200 au after background subtraction were excluded. The spatial autocorrelation functions were calculated using Fourier methods, then fit to a 2D Gaussian using a nonlinear least-squares algorithm (41). Using the outputs of the fitting, the mean number of independent emitting fluorescent entities per focal spot area and subsequently the DA were determined (59). DA measurements across experiments were normalized by the control in each dataset. […] Any DA values exceeding 3 standard deviations from the mean were defined as incorrectly segmented and removed. Data were plotted in Prism and analysis performed in Prism or Excel.

OVCA429 cells = experiment: γH2AX immunofluorescence in OVCA429 cells (intensity, Imaris Spots, ICS TNoP and DA)
From the text: (§4) For the ICS analysis, nuclei were segmented from the DAPI channel using a watershed approach in MATLAB. Briefly, we applied a difference of gaussians for size-based feature extraction of nuclei in the image (upper gaussian σ=100, lower gaussian σ=2-5 dependent on cell size). This feature enhanced image was then binarized to create a primary mask (using the function imbinarize) and connected components under 100 pixels were removed (using the function bwareaopen). We then created a distance transform of the resulting binary image (using the function bwdist). Seed points were determined by finding the regional maximum of a gaussian filtered image, with a gaussian σ of appropriate size for seed point detection (σ×7 or 8 dependent on cell size). The seed points were applied to the distance transform, and we applied the watershed function to the resulting image to obtain masks for each nucleus (extracted using the function regionprops).
(§5) Using the nucleus masks, we performed ICS analysis on the antibody-stained channel, within size limitations for a nucleus (objects >400 and <2400 pixels). Intensity, DA and TNOP were calculated for each cell. In this analysis, since the ROI is defined by the nucleus mask (segmented from nuclear signal using DAPI staining), TNoP represents the total number of particles per nucleus, with the image area being the number of pixels in each nuclear mask.
(§6) Measurements across experiments were normalized by the control in each dataset. […] Data were plotted in Prism and statistical analysis was performed in Excel.
(§7) Imaris spots analysis were performed with Imaris 9.8 with background subtraction, using a spot size of 1 μm that was measured from the smallest distinguishable foci from the control image. For images with multiple nuclei, ImarisCell was used with the detection type “cell and vesicles”, where the nucleus in the DAPI channel was modelled as the “cell” and antibody-labeled foci were modelled as the “vesicles”. This enabled us to count the number of foci per nucleus for multiple cells. In each dataset, the automatic “quality” threshold was determined from the control image and the same threshold was used for every image in the dataset to be able to compare the outputs across datasets. Similar to the ICS analysis, only cells with an area between 400-2400 voxels were included for analysis.
(§8) All chemicals were purchased from Sigma unless otherwise noted. All drugs were purchased from Selleck Chemicals. Cells were cultured in media supplemented with 10% fetal bovine serum and 1% penicillin/streptomycin. OVCA429 were originally obtained from Dr. Michael Birrer and cultured in DMEM. SKOV3 was obtained from ATCC and cultured in RPMI. For MMS treatment, cells were incubated for 6 hours before fixation with 4% formaldehyde, whereas for treatment with PARP inhibitors, cells were incubated for 24 hours before fixation.
(§9) Cells were plated in 8-well slides (Fisher) to achieve 50% confluence overnight. Cells were then treated and fixed with 4% formaldehyde in PBS at room temperature for 10 minutes. Antibody staining was performed according to the manufacturers protocol (Cell Signaling Technologies or Abcam). Primary antibodies used were γH2AX (CST, #2577), RPA1 (CST, #2267) and RAD51 (Abcam, 63801), with Anti-rabbit IgG Fab2 Alexa Fluor 647 (CST, #4414) as the secondary fluorescent antibody. After antibody labeling, prolong gold with DAPI (CST) was added and samples were stored for up to 1 week prior to imaging. Confocal imaging was performed on an Olympus FV1000 multiphoton/confocal microscope using an Olympus XLUMPlanFL N 20× objective, NA 1.00 with chromatic correction, and 3× digital zoom. DAPI was excited with a 405 nm laser, while Alexa Fluor 647 was excited with a 635 nm laser. A multiband (DM 405/488/561/633 nm) dichroic mirror was used to direct the excitation laser and collect emission. […]

SKOV3 cells = experiment: γH2AX immunofluorescence in SKOV3 cells (intensity, Imaris Spots, ICS TNoP and DA)
From the text: as §4, §5, §6, §7, §8, §9

[1] = HCC1937, 10 nM GMX1778 overnight then 100 μM TMZ 1 hour

SMILES: NC(=O)c1cccc(N)c1 [3-aminobenzamide]
- 53BP1 DA vs. concentration regression (53BP1 recruitment) (HepG2 cells): reduced 53BP1 recruitment
- 53BP1 DA vs. concentration regression (53BP1 recruitment) (WPMY-1 cells): reduced 53BP1 recruitment
- 53BP1 DA vs. concentration regression (53BP1 recruitment) (A549 cells): reduced 53BP1 recruitment

SMILES: O=c1[nH]cnc2ccccc12 [4-HQN]
- 53BP1 DA vs. concentration regression (53BP1 recruitment) (53BP1): increased 53BP1 recruitment

SMILES: Cc1nc(NC(=O)N2CCC[C@H]2C(N)=O)sc1-c1csc(C(C)(C)C)n1 [A66]
- 53BP1 DA vs. concentration regression (53BP1 recruitment) (WPMY-1 cells): strong inducers of 53BP1 recruitment

SMILES: N#CN=C(NCCCCCCOc1ccc(Cl)cc1)Nc1ccncc1 [GMX1778]
- 53BP1-mApple condensate anisotropy vs control (HCC1937 cells; [1]): significantly lowered condensate anisotropy
- 53BP1-mApple condensate intensity vs control (HCC1937 cells; [1]): without impacting condensate intensity
- γH2AX ICS DA (HT1080 cells): significantly increased
- γH2AX levels (nuclear intensity) (HT1080 cells): no significant difference

SMILES: NC(=O)c1cccc(-c2cc(Nc3ccc(OC(F)(F)F)cc3)ncn2)c1 [GNF 2]
- 53BP1 DA vs. concentration regression (53BP1 recruitment) (HepG2 cells): reduced 53BP1 recruitment
- 53BP1 DA vs. concentration regression (53BP1 recruitment) (A549 cells): reduced 53BP1 recruitment

SMILES: Cc1nc2c(O)cccc2c(=O)[nH]1 [NU 1025]
- 53BP1 DA vs. concentration regression (53BP1 recruitment) (53BP1): increased 53BP1 recruitment

SMILES: COc1ccc(C(=O)C2CCN(CC(=O)N(Cc3nc4c(c(=O)[nH]3)COCC4)CC3CC3)CC2)cc1 [NVP-TNKS656]
- 53BP1 DA vs. concentration regression (53BP1 recruitment) (53BP1): increased 53BP1 recruitment

SMILES: CCCOc1ccc(CCc2nc3cc(-c4c(C)noc4C)ccc3n2CCN2CCOCC2)cc1 [PF CBP1]
- 53BP1 DA vs. concentration regression (53BP1 recruitment) (WPMY-1 cells): strong activity

SMILES: COc1ccccc1S(=O)(=O)Nc1ccc2c(c1)CN(C)C(=O)N2 [PFI-1]
- 53BP1 DA vs. concentration regression (53BP1 recruitment) (HepG2 cells): strong positive activity
- 53BP1 DA vs. concentration regression (53BP1 recruitment) (A549 cells): strong positive activity

SMILES: Cc1cc(C)c(C)c(S(=O)(=O)Nc2ccc(N3CC[C@H](C(=O)O)C3)c3ccccc23)c1C [RA839]
- 53BP1 DA vs. concentration regression (53BP1 recruitment) (WPMY-1 cells): two of the strongest 53BP1 recruitment-reducing compounds

SMILES: O=C(CCCCCCC(=O)Nc1ccccc1)NO [SAHA]
- 53BP1 DA vs. concentration regression (53BP1 recruitment) (WPMY-1 cells): strong inducers of 53BP1 recruitment

SMILES: O=C(c1cc(Cc2n[nH]c(=O)c3ccccc23)ccc1F)N1CCN(C(=O)C2CC2)CC1 [olaparib]
- 53BP1-mApple condensate anisotropy vs control (HCC1937 cells; HCC1937, 1 μM PARPi and 100 μM TMZ for 1 hour): significantly lower condensate anisotropy compared to control
- ICS DA of γH2AX, dose dependence (OVCA429 cells; OVCA429): full dose dependent increases in γH2AX clustering
- Imaris Spots analysis of γH2AX, dose dependence (OVCA429 cells; OVCA429): able to capture olaparib dose dependence
- γH2AX intensity, dose dependence (OVCA429 cells; OVCA429, PARP inhibitors): did not show a dose dependence
- ICS TNoP of γH2AX, dose dependence (SKOV3 cells; SKOV3): slight TNOP dose dependence
- Number of γH2AX spots determined by Imaris (SKOV3 cells; SKOV3, 100 μM olaparib vs 10 μM dose): not significant compared to the 10 μM dose

SMILES: Cc1c(-c2cnccn2)ssc1=S [oltipraz]
- 53BP1 DA vs. concentration regression (53BP1 recruitment) (WPMY-1 cells): two of the strongest 53BP1 recruitment-reducing compounds

SMILES: S=P(N1CC1)(N1CC1)N1CC1 [thiotepa]
- 53BP1 DA vs. concentration regression (53BP1 recruitment) (WPMY-1 cells): strong inducers of 53BP1 recruitment
